The results in this text go back to patent US20260070902A1, “SULFONYL DERIVATIVES AS CCR6 INHIBITORS” (Hoffmann-La Roche Inc., priority 2022, published 2026).

For one test, the system named is Human CD4+ T cells. The experiment in a line: CD4+ T cells chemotaxis assay towards CCL20. The test is classed as cell-based. Particulars: 3 h; for CD4+ T-cell chemotaxis: relative -Log IC50, human CD4+ T cells stimulated with anti-CD3 and anti-CD28, migration towards 150 ng/ml CCL20; for IC50: Homo sapiens, CD4+ T cell, relative -Log IC50, human CD4+ T cells stimulated with anti-CD3 and anti-CD28, migration towards 150 ng/ml CCL20. The source says:
CD4+ T Cells Chemotaxis Assay Towards CCL20
Human CD4+ T cells were isolated from buffy coats of healthy donors using a CD4+ T Cell Isolation Kit (Miltenyi Biotec130-096-533). Isolated T cells were stimulated overnight with anti-CD3 and anti-CD28 antibodies (Biolegend 300314/302934) in growth medium (RPMI1640, 10% heat-inactivated FBS, 1× pen/strep (Gibco 15140)). For the chemotaxis assay, Corning Transwell plates were used with a pore size of 5 m (Corning 3388). T cells were counted and diluted to 6*10^6 cells/ml in chemotaxis medium (RPMI1640, 1% BSA, pen/strep). Compounds were four-fold serially diluted in DMSO. Further dilutions were made in chemotaxis medium. Cells were incubated with test compounds for 30 min at 37° C. prior to initiation of the assay (3*10^6 cells/ml). Final DMSO concentration in the assay was 0.2%. Wells of the Transwell plates were filled with 200 μl chemotaxis medium containing 150 ng/ml CCL20 (R&D systems 360-MP). 50 μl of the cell/compound suspension was added to the inserts of the Transwell plates (150,000 cells/insert). The Transwell plates were placed in an incubator at 37° C., 5% CO2 for 3 h. After 3 h, the number of migrated cells was quantified using CellTiter Glo (Promega). Percentage inhibition values were calculated based on the low and high signal obtained with 0.2% DMSO in chemotaxis medium without and with CCL20, respectively. The relative −Log IC50 was determined with GraphPad Prism 9 using a four-parameter dose-response model.

In another test the target is T1, human CCR6 (Homo sapiens, UniProt P51684).
T1 sequence (P51684 1-374): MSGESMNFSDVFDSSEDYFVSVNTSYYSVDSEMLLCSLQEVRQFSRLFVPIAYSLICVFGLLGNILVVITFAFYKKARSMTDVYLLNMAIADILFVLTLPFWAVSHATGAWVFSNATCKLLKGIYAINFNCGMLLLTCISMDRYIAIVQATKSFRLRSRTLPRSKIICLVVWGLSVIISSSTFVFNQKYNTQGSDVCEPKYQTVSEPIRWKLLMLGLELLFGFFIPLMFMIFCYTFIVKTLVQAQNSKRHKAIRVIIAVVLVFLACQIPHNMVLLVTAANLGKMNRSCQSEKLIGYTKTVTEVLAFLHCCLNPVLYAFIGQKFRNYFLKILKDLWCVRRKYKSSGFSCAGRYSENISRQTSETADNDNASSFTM
The test can be described thus: Human CCR6-CRE reporter assay. The test is classed as cell-based. The arrangement: The second construct contained the open reading frame of human CCR6 in the pUNO1 backbone; host or cells: 293FT cells. Particulars: relative -Log IC50; 293FT cells transfected with human CCR6 and CRE-luciferase reporter; 6 μM Forskolin, 6 nM CCL20; 5 h. The method in brief: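 293FT cells transiently co-transfected with human CCR6 and a CRE-luc2P reporter, used 48 h later. Compounds incubated with cells in medium containing 6 μM Forskolin and 6 nM CCL20 (assay-medium levels), 0.1% DMSO final, 5 h at 37° C; luminescence read, relative −Log IC50 from four-parameter fit.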

A word on the IC50: it is the concentration that gives 50% inhibition. Higher therefore signals lower potency. As to `N=S(=O)(c1ccc(-c2ccnc(C(N)=O)c2)cc1)[C@H]1CC[C@H](Nc2ccc(S(F)(F)(F)(F)F)cc2)CC1` (single isomer, unassigned; (+)) [Example 130, (+)-4-(4-{[trans-4-{[4-(pentafluoro-λ^6-sulfanyl)phenyl]Amino}cyclohexyl]sulfonimidoyl}phenyl)pyridine-2-carboxamide], the “CD4+ T-cell chemotaxis” value in the test with Human CD4+ T cells came out at 7.3. Also, the midpoint of inhibition against human CCR6, the IC50, lay at 200 nM.
Taken in the same sequence, the figures for `CC(C)c1nnc2ccc(-c3ccc(S(=N)(=O)[C@H]4CC[C@H](Nc5ccc(S(F)(F)(F)(F)F)cc5)CC4)cc3)cn12` (single isomer, unassigned; (+)) [Example 163, (+)-{4-[3-(propan-2-yl)-[1,2,4]triazolo[4,3-a]pyridin-6-yl]phenyl}[trans-4-{[4-(pentafluoro-λ^6-sulfanyl)phenyl]amino}cyclohexyl](imino)-λ^6-sulfanone] were 7.8 and 79.4 nM.
As to `N=S(=O)(c1ccc(-c2ccnc(C(N)=O)c2)cc1)[C@H]1CC[C@H](Nc2ccc(S(F)(F)(F)(F)F)cc2)CC1` (single isomer, unassigned; (-)) [Example 131, (−)-4-(4-{[trans-4-{[4-(pentafluoro-λ^6-sulfanyl)phenyl]Amino}cyclohexyl]sulfonimidoyl}phenyl)pyridine-2-carboxamide], in the test with Human CD4+ T cells, the “CD4+ T-cell chemotaxis” value was 6.6. Also, on human CCR6, half-maximal inhibition (IC50) required 316 nM.
Taken in the same sequence, the figures for `CC(C)c1nnc2ccc(-c3ccc(S(=N)(=O)[C@H]4CC[C@H](Nc5ccc(S(F)(F)(F)(F)F)cc5)CC4)cc3)cn12` (single isomer, unassigned; (-)) [Example 164, (−)-{4-[3-(propan-2-yl)-[1,2,4]triazolo[4,3-a]pyridin-6-yl]phenyl}[trans-4-{[4-(pentafluoro-λ^6-sulfanyl)phenyl]amino}cyclohexyl](imino)-λ^6-sulfanone] were 6.7 and 126 nM.
Turning to `Cc1[nH]nc2ccc(-c3ccc(S(=O)(=O)N4CCC(Nc5ccc(S(F)(F)(F)(F)F)cc5)CC4)cc3)cc12` [Example 2, 1-[4-(3-methyl-2H-indazol-5-yl)benzenesulfonyl]-N-[4-(pentafluoro-λ^6-sulfanyl)phenyl]piperidin-4-amine], the 50% inhibitory concentration (IC50) is 5.01 nM in the test with Human CD4+ T cells and 63.1 nM against human CCR6.
For the compound `N#Cc1c[nH]c2ccc(-c3ccc(S(=O)(=O)N4CCC(Nc5ccc(S(F)(F)(F)(F)F)cc5)CC4)cc3)cc12` [Example 3, 5-{4-[(4-{[4-(pentafluoro-λ^6-sulfanyl)phenyl]Amino}piperidin-1-yl)sulfonyl]phenyl}-1H-indole-3-carbonitrile], the half-maximal inhibitory concentration (IC50) in the test on Human CD4+ T cells is 15.8 nM; at human CCR6, 50.1 nM.
Take `N#Cc1n[nH]c2ccc(-c3ccc(S(=O)(=O)N4CCC(Nc5ccc(S(F)(F)(F)(F)F)cc5)CC4)cc3)cc12` [Example 4, 5-{4-[(4-{[4-(pentafluoro-λ^6-sulfanyl)phenyl]Amino}piperidin-1-yl)sulfonyl]phenyl}-1H-indazole-3-carbonitrile]: the IC50 with Human CD4+ T cells is 0.794 nM; against human CCR6, 50.1 nM.
On the same counts, the results for `N#Cc1c[nH]c2ccc(-c3ccc(S(=O)(=O)[C@H]4CC[C@H](Nc5ccc(S(F)(F)(F)(F)F)cc5)CC4)cc3)cc12` [Example 7, 5-(4-{[trans-4-{[4-(pentafluoro-λ^6-sulfanyl)phenyl]Amino}cyclohexyl]sulfonyl}phenyl)-1H-indole-3-carbonitrile] are 0.501 nM and 39.8 nM.
Taken in the same sequence, the figures for `O=C1NCc2ccc(-c3ccc(S(=O)(=O)[C@H]4CC[C@H](Nc5ccc(S(F)(F)(F)(F)F)cc5)CC4)cc3)cc21` [Example 9, 6-(4-{[trans-4-{[4-(pentafluoro-λ^6-sulfanyl)phenyl]Amino}cyclohexyl]sulfonyl}phenyl)-2,3-dihydro-1H-isoindol-1-one] were 10 nM and 79.4 nM.
Turning to `O=S(=O)(c1ccc(-c2ccc3nccn3c2)cc1)[C@H]1CC[C@H](Nc2ccc(S(F)(F)(F)(F)F)cc2)CC1` [Example 12, 4-(pentafluoro-λ^6-sulfanyl)-N-[trans-4-(4-{imidazo[1,2-a]pyridin-6-yl}benzenesulfonyl)cyclohexyl]aniline], the half-inhibitory concentration (IC50) in the test on Human CD4+ T cells is 15.8 nM; against human CCR6, 79.4 nM.
On the same counts, the results for `N#Cc1cnc2ccc(-c3ccc(S(=O)(=O)N4CCC(Nc5ccc(S(F)(F)(F)(F)F)cc5)CC4)cc3)cn12` [Example 25, 6-{4-[(4-{[4-(pentafluoro-λ^6-sulfanyl)phenyl]Amino}piperidin-1-yl)sulfonyl]phenyl}imidazo[1,2-a]pyridine-3-carbonitrile] are 5.01 nM and 39.8 nM.
Taken in the same sequence, the figures for `O=c1[nH]nc2ccc(-c3ccc(S(=O)(=O)N4CCC(Nc5ccc(S(F)(F)(F)(F)F)cc5)CC4)cc3)cn12` [Example 32, 6-{4-[(4-{[4-(pentafluoro-λ^6-sulfanyl)phenyl]Amino}piperidin-1-yl)sulfonyl]phenyl}-2H,3H-[1,2,4]triazolo[4,3-a]pyridin-3-one] were 3.98 nM and 100 nM.
On the same counts, the results for `N#Cc1n[nH]c2ccc(-c3ccc(S(=O)(=O)[C@H]4CC[C@H](Nc5ccc(S(F)(F)(F)(F)F)cc5)CC4)cc3)cc12` [Example 38, 5-(4-{[trans-4-{[4-(pentafluoro-λ^6-sulfanyl)phenyl]Amino}cyclohexyl]sulfonyl}phenyl)-1H-indazole-3-carbonitrile] are 0.631 nM and 39.8 nM.
As to `Cc1nc2ccc(-c3ccc(S(=O)(=O)[C@H]4CC[C@H](Nc5ccc(S(F)(F)(F)(F)F)cc5)CC4)cc3)cn2n1` [Example 40, 4-(pentafluoro-λ^6-sulfanyl)-N-[trans-4-(4-{2-methyl-[1,2,4]triazolo[1,5-a]pyridin-6-yl}benzenesulfonyl)cyclohexyl]aniline], the IC50 was 10 nM with Human CD4+ T cells and 100 nM against human CCR6.
Taken in the same sequence, the figures for `O=S(=O)(c1ccc(-c2ccc(O)nc2)cc1)[C@H]1CC[C@H](Nc2ccc(S(F)(F)(F)(F)F)cc2)CC1` [Example 56, 5-(4-{[trans-4-{[4-(pentafluoro-λ^6-sulfanyl)phenyl]Amino}cyclohexyl]sulfonyl}phenyl)pyridin-2-ol] were 15.8 nM and 63.1 nM.
For `O=S(=O)(c1ccc(-c2ccc3nccn3c2)nc1)N1CCC(Nc2ccc(S(F)(F)(F)(F)F)cc2)CC1` [Example 77, 1-[(6-{imidazo[1,2-a]pyridin-6-yl}pyridin-3-yl)sulfonyl]-N-[4-(pentafluoro-λ^6-sulfanyl)phenyl]piperidin-4-amine], the half-maximal inhibitory concentration (IC50) is 126 nM in the test on Human CD4+ T cells and 501 nM against human CCR6.
Taken in the same sequence, the figures for `N#Cc1cnc2ccc(-c3ccc(S(=O)(=O)N4CCC(Nc5cccc(S(F)(F)(F)(F)F)c5)CC4)cc3)cn12` [Example 81, 6-{4-[(4-{[3-(pentafluoro-λ^6-sulfanyl)phenyl]Amino}piperidin-1-yl)sulfonyl]phenyl}imidazo[1,2-a]pyridine-3-carbonitrile] were 158 nM and 126 nM.
On the same counts, the results for `O=S(=O)(c1ccc(-c2ccc3nccn3c2)cc1)N1CCC(Nc2cccc(S(F)(F)(F)(F)F)c2)CC1` [Example 82, 1-(4-{imidazo[1,2-a]pyridin-6-yl}benzenesulfonyl)-N-[3-(pentafluoro-λ^6-sulfanyl)phenyl]piperidin-4-amine] are 316 nM and 200 nM.
In the case of `N=S(=O)(c1ccc(-c2ccnc(C(N)=O)c2)cc1)[C@H]1CC[C@H](Nc2ccc(S(F)(F)(F)(F)F)cc2)CC1` (stereo partly drawn) [Example 91, 4-(4-{[trans-4-{[4-(pentafluoro-λ^6-sulfanyl)phenyl]Amino}cyclohexyl]sulfonimidoyl}phenyl)pyridine-2-carboxamide], the IC50 was 31.6 nM in the test on Human CD4+ T cells and 126 nM on human CCR6.
